The text below walks through data of patent publication US20220153766A1, “CONDENSED TRICYCLIC COMPOUND USED AS KINASE INHIBITOR” (Hangzhou Innogate Pharma Co., Ltd., priority 2019, published 2022).

The target in data set [1] is ALK (Homo sapiens, UniProt Q9UM73). Briefly: ALK kinase activity inhibition, Caliper mobility shift assay, method 2. It is filed as biochemical. The following applies: ALK 1.25 nM, ATP 30 μM. On the procedure: 2. ALK Kinase Activity Inhibition Experiment:
Method 2: Caliper mobility shift assay was used to measure ALK protein kinase activity. The method is basically the same as method 1, with individual parameters adjusted. The initial concentration of the compound is 1 mM, and sequentially diluted 4-fold to make 6 points (7 points for some individual compounds). Use a dispenser Echo 550 to transfer 250 nL of 100-fold final concentration of the compound to the target plate 3573, add 10 μL ALK with final concentration of 1.25 nM, incubate at room temperature for 10 minutes (the negative control well contains 10 μL kinase buffer and 250 nL 100% DMSO; the positive control well contains 10 μL kinase solution and 250 nL 100% DMSO). On the kinase ALK, add 15 μL of ATP with a final concentration of 30 μM and 3 μM of the substrate peptide No. 22 mixed solution to react for 25 minutes; add 30 μL of stop detection solution containing EDTA to stop the kinase reaction. Use Caliper EZ Reader to read the conversion rate. Inhibition rate %=(Average positive control conversion rate %−Sample conversion rate %/(Average positive control conversion rate %−Average negative control conversion rate %). Among them: negative control wells represent the conversion rate readings without enzyme activity; positive control wells represent the conversion rate readings of wells without compound inhibition. Take the log value of the concentration as the X-axis, and the percentage inhibition rate on the Y-axis. Log (inhibitor) vs. response—Variable slope of analysis software GraphPad Prism 5 was used to fit the curve to obtain the IC50 value of each compound on the enzyme activity. Calculation formula: Y=Bottom+(Top−Bottom)/(1+10^((Log IC50−X)*HillSlope)).

Data set [2] can be described thus: Pharmacokinetic study in rats after intragastrical administration. The data set is classed as in vivo. Particulars: male, rat, plasma, po, SD rats, 3 mg/kg.

Sequence of ALK (Q9UM73 19-1620): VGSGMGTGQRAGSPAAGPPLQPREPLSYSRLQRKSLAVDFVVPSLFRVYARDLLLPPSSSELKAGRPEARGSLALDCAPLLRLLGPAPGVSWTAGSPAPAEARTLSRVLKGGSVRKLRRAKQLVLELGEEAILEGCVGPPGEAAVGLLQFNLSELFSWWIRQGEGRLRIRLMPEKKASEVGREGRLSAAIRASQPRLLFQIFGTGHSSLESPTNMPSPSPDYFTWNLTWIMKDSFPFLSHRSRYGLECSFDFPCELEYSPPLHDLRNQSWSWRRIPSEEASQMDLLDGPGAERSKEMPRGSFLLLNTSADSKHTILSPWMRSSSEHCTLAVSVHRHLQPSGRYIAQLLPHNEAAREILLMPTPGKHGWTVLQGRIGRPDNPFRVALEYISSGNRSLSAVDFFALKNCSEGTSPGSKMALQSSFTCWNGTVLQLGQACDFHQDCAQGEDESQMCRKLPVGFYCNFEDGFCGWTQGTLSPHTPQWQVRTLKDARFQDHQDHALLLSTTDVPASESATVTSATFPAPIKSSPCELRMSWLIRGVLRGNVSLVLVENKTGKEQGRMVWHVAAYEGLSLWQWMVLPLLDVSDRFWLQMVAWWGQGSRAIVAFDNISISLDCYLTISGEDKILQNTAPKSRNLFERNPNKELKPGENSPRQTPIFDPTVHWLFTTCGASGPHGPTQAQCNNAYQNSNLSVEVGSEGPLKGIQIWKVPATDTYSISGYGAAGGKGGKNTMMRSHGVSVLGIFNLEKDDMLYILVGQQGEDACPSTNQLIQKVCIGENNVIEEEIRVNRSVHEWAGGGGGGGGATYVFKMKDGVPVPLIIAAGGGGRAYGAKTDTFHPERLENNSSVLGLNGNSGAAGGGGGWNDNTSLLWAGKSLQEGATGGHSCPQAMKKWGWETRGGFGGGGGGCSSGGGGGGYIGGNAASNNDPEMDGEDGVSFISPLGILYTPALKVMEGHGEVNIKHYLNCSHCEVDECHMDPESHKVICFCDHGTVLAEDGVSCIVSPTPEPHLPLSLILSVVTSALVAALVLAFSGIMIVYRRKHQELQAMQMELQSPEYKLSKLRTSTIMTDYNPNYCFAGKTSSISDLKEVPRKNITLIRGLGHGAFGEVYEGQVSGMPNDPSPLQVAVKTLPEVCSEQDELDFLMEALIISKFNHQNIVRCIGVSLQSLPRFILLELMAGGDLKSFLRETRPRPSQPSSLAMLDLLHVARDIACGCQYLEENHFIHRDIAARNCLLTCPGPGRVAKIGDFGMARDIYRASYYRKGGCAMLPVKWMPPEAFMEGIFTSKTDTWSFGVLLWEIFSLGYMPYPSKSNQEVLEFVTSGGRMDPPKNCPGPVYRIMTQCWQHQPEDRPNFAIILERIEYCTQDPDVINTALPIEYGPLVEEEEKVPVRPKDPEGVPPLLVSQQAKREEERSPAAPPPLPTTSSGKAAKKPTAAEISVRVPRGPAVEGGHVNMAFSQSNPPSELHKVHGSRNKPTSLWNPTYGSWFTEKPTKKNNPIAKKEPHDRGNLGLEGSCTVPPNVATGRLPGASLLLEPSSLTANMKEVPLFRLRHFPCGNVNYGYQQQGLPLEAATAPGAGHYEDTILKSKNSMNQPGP

In general, IC50 refers to the concentration that inhibits the measured activity by half. A word on the Cmax: it is the maximum level reached in the sampled fluid or tissue. As usually defined, the Tmax is the time from dosing to the highest level. What is called half-life is the time needed for the level to fall by half in the phase considered. The low end stands for rapid decline, the high end for slow decline. For `Cc1cc(Nc2ncc(Cl)c(Nc3ccccc3P(C)(C)=O)n2)cc2c1N1CCN(C3CCN(C)CC3)C[C@@H]1CO2` [Compound 27R], the half-inhibitory concentration (IC50) in data set [1] was 1 to 50 nM. Moreover, in data set [2], the Cmax was found to be 196 ng/mL, the Tmax stood at 5.33 h and the half-life is 5.17 h. Further, the AUC(0-t) in data set [2] (read-out: AUC0-24 h) turned out to be 2750 ng·h/mL.
